{"source": "patent US10681909B2", "about": "“Herbicidal triazoles” (FMC Corporation, priority 2014, dated 2020)", "key": {"ryegrass, Italian": {"tested_on": "ryegrass, Italian", "assay": "Test C preemergence", "format": "in vivo, Lolium multiflorum", "conditions": "for Ryegrass, Italian plant response rating (0 to 100): Preemergence, visual rating after 13 to 15 d; for Plant response rating (scale of 0 to 100 where 0 is no effect and 100 is complete control): Ryegrass, Italian, preemergence", "excerpt": "(§1) Seeds of plant species selected from blackgrass (Alopecurus myosuroides), ryegrass, Italian (Italian ryegrass, Lolium multiflorum), wheat (winter wheat, Triticum aestivum), galium (catchweed bedstraw, Galium aparine), corn (Zea mays), crabgrass, large (large crabgrass, Digitaria sanguinalis), foxtail, giant, (giant foxtail, Setaria faberii), johnsongrass (Sorghum halepense), lambsquarters (Chenopodium album), morningglory (Ipomoea coccinea), nutsedge, yellow (yellow nutsedge, Cyperus esculentus), pigweed (Amaranthus retroflexus), ragweed (common ragweed, Ambrosia elatior), soybean (Glycine max), barnyardgrass (Echinochloa crus-galli), oilseed rape (Brassica napus), waterhemp (common waterhemp, Amaranthus rudis), and velvetleaf (Abutilon theophrasti) were planted into a blend of loam soil and sand and treated preemergence with test chemicals formulated in a non-phytotoxic solvent mixture which included a surfactant. At the same time, plants selected from these crop and weed species and also chickweed (common chickweed, Stellaria media), oat, wild (wild oat, Avena fatua), and kochia (Kochia scoparia), were planted in pots containing Sunshine Redi-Earth® planting medium comprising spaghnum peat moss, vermiculite, starter nutrients and dolomitic limestone and treated with postemergence applications of test chemicals formulated in the same manner. Plants ranged in height from 2 to 18 cm (1- to 4-leaf stage) for postemergence treatments. […] A dash (-) response means no test result."}, "galium [1]": {"tested_on": "galium", "assay": "Test C preemergence", "format": "in vivo, Galium aparine", "conditions": "for Plant response rating (scale of 0 to 100 where 0 is no effect and 100 is complete control): Galium, preemergence; for Galium plant response rating (0 to 100): Preemergence, visual rating after 13 to 15 d", "excerpt": "as §1"}, "johnsongrass": {"tested_on": "johnsongrass", "assay": "Test C preemergence", "format": "in vivo, Sorghum halepense", "conditions": "for Plant response rating (scale of 0 to 100 where 0 is no effect and 100 is complete control): Johnsongrass, preemergence; for Johnsongrass plant response rating (0 to 100): Preemergence, visual rating after 13 to 15 d", "excerpt": "as §1"}, "nutsedge, yellow": {"tested_on": "nutsedge, yellow", "assay": "Test C preemergence", "format": "in vivo, Cyperus esculentus", "conditions": "for Plant response rating (scale of 0 to 100 where 0 is no effect and 100 is complete control): Nutsedge, Yellow, preemergence; for Nutsedge, Yellow plant response rating (0 to 100): Preemergence, visual rating after 13 to 15 d", "excerpt": "as §1"}, "blackgrass": {"tested_on": "blackgrass", "assay": "Test D preemergence", "format": "in vivo, Alopecurus myosuroides", "conditions": "for Plant response rating: Blackgrass: scale 0 to 100", "excerpt": "(§2) Seeds of plant species selected from bluegrass (annual bluegrass, Poa annua), blackgrass (Alopecurus myosuroides), canarygrass (Phalaris minor), chickweed (common chickweed, Stellaria media), galium (catchweed bedstraw, Galium aparine), bromegrass, down (downy bromegrass, Bromus tectorum), Russian thistle (Salsola kali), field poppy (Papaver rhoeas), field violet (Viola arvensis), foxtail, green (green foxtail, Setaria viridis), deadnettle (henbit deadnettle, Lamium amplexicaule), ryegrass, Ital. (Italian ryegrass, Lolium multiflorum), kochia (Kochia scoparia), lambsquarters (Chenopodium album), oilseed rape (Brassica napus), pigweed (Amaranthus retroflexus), chamomile (scentless chamomile, Matricaria inodora), speedwell (bird's-eye speedwell, Veronica persica), barley, spring (spring barley, Hordeum vulgare), wheat, spring (spring wheat, Triticum aestivum), buckwheat, wild (wild buckwheat, Polygonum convolvulus), wild mustard (Sinapis arvensis), oat, wild (wild oat, Avena fatua), radish, wild (wild radish, Raphanus raphanistrum), […]), barley, winter (winter barley, Hordeum vulgare), and wheat, winter (winter wheat, Triticum aestivum) were planted into a silt loam soil and treated preemergence with test chemicals formulated in a non-phytotoxic solvent mixture which included a surfactant. At the same time, these species were planted in pots containing Sunshine Redi-Earth® planting medium comprising spaghnum peat moss, vermiculite, starter nutrients and dolomitic limestone and treated with postemergence applications of the test chemicals formulated in the same manner. Plants ranged in height from 2 to 18 cm (1- to 4-leaf stage). Treated plants and controls were maintained in a controlled growth environment for 14 to 21 d after which time all species were compared to controls and visually evaluated. […] A dash (-) response means no test result."}, "Russian thistle": {"tested_on": "Russian thistle", "assay": "Test D preemergence", "format": "in vivo, Salsola kali", "conditions": "for Plant response rating: Russian Thistle: scale 0 to 100", "excerpt": "as §2"}, "barley, spring": {"tested_on": "barley, spring", "assay": "Test D preemergence", "format": "in vivo, Hordeum vulgare", "conditions": "for Plant response rating: Barley, Spring: scale 0 to 100", "excerpt": "as §2"}, "barley, winter": {"tested_on": "barley, winter", "assay": "Test D preemergence", "format": "in vivo, Hordeum vulgare", "conditions": "for Plant response rating: Barley, Winter: scale 0 to 100", "excerpt": "as §2"}, "wild mustard": {"tested_on": "wild mustard", "assay": "Test D preemergence", "format": "in vivo, Sinapis arvensis", "conditions": "for Plant response rating: Mustard, Wild: scale 0 to 100", "excerpt": "as §2"}, "chickweed": {"tested_on": "chickweed", "assay": "Test D postemergence", "format": "in vivo, Stellaria media", "conditions": "scale 0 to 100", "excerpt": "as §2"}, "galium [2]": {"tested_on": "galium", "assay": "Test D postemergence", "format": "in vivo, Galium aparine", "conditions": "scale 0 to 100", "excerpt": "as §2"}, "deadnettle": {"tested_on": "deadnettle", "assay": "Test D postemergence", "format": "in vivo, Lamium amplexicaule", "conditions": "scale 0 to 100", "excerpt": "as §2"}, "[3]": {"conditions": "16 g ai/ha, 0 is no effect, 100 is complete control"}}}
{"smiles": "Fc1ccc(-c2nc(OCC(F)(F)F)n(Cc3ccnc(C(F)(F)F)c3)n2)cc1", "note": "[Compound 30]", "values": [{"measurement": "Ryegrass, Italian plant response rating (0 to 100)", "setting": "ryegrass, Italian; 31 g ai/ha", "value": 5}, {"measurement": "Ryegrass, Italian plant response rating (0 to 100)", "setting": "ryegrass, Italian; 62 g ai/ha", "value": 60}, {"measurement": "Plant response rating (scale of 0 to 100 where 0 is no effect and 100 is complete control)", "setting": "ryegrass, Italian; 125 g ai/ha", "value": 70}, {"measurement": "Plant response rating (scale of 0 to 100 where 0 is no effect and 100 is complete control)", "setting": "ryegrass, Italian; 250 g ai/ha", "value": 70}, {"measurement": "Plant response rating (scale of 0 to 100 where 0 is no effect and 100 is complete control)", "setting": "galium [1]; 125 g ai/ha", "value": 95}, {"measurement": "Plant response rating (scale of 0 to 100 where 0 is no effect and 100 is complete control)", "setting": "galium [1]; 250 g ai/ha", "value": 95}, {"measurement": "Galium plant response rating (0 to 100)", "setting": "galium [1]; 31 g ai/ha", "value": 60}, {"measurement": "Galium plant response rating (0 to 100)", "setting": "galium [1]; 62 g ai/ha", "value": 65}, {"measurement": "Plant response rating (scale of 0 to 100 where 0 is no effect and 100 is complete control)", "setting": "johnsongrass; 125 g ai/ha", "value": 85}, {"measurement": "Plant response rating (scale of 0 to 100 where 0 is no effect and 100 is complete control)", "setting": "johnsongrass; 250 g ai/ha", "value": 95}, {"measurement": "Johnsongrass plant response rating (0 to 100)", "setting": "johnsongrass; 31 g ai/ha", "value": 35}, {"measurement": "Johnsongrass plant response rating (0 to 100)", "setting": "johnsongrass; 62 g ai/ha", "value": 65}, {"measurement": "Plant response rating (scale of 0 to 100 where 0 is no effect and 100 is complete control)", "setting": "nutsedge, yellow; 125 g ai/ha", "value": 0}, {"measurement": "Plant response rating (scale of 0 to 100 where 0 is no effect and 100 is complete control)", "setting": "nutsedge, yellow; 250 g ai/ha", "value": 10}, {"measurement": "Nutsedge, Yellow plant response rating (0 to 100)", "setting": "nutsedge, yellow; 31 g ai/ha", "value": 0}, {"measurement": "Nutsedge, Yellow plant response rating (0 to 100)", "setting": "nutsedge, yellow; 62 g ai/ha", "value": 0}, {"measurement": "Plant response rating (0 to 100), Blackgrass", "setting": "blackgrass; [3]", "value": 30}, {"measurement": "Plant response rating: Blackgrass", "setting": "blackgrass; 31 g ai/ha", "value": 45}, {"measurement": "Plant response rating: Blackgrass", "setting": "blackgrass; 62 g ai/ha", "value": 60}, {"measurement": "Plant response rating: Blackgrass", "setting": "blackgrass; 125 g ai/ha", "value": 70}, {"measurement": "Plant response rating (0 to 100), Russian Thistle", "setting": "Russian thistle; [3]", "value": 80}, {"measurement": "Plant response rating: Russian Thistle", "setting": "Russian thistle; 62 g ai/ha", "value": 90}, {"measurement": "Plant response rating: Russian Thistle", "setting": "Russian thistle; 125 g ai/ha", "value": 90}, {"measurement": "Plant response rating (0 to 100), Barley, Spring", "setting": "barley, spring; [3]", "value": 30}, {"measurement": "Plant response rating: Barley, Spring", "setting": "barley, spring; 31 g ai/ha", "value": 40}, {"measurement": "Plant response rating: Barley, Spring", "setting": "barley, spring; 62 g ai/ha", "value": 35}, {"measurement": "Plant response rating: Barley, Spring", "setting": "barley, spring; 125 g ai/ha", "value": 45}, {"measurement": "Plant response rating (0 to 100), Barley, Winter", "setting": "barley, winter; [3]", "value": 20}, {"measurement": "Plant response rating: Barley, Winter", "setting": "barley, winter; 31 g ai/ha", "value": 25}, {"measurement": "Plant response rating: Barley, Winter", "setting": "barley, winter; 62 g ai/ha", "value": 30}, {"measurement": "Plant response rating: Barley, Winter", "setting": "barley, winter; 125 g ai/ha", "value": 40}, {"measurement": "Plant response rating (0 to 100), Mustard, Wild", "setting": "wild mustard; [3]", "value": 90}, {"measurement": "Plant response rating: Mustard, Wild", "setting": "wild mustard; 62 g ai/ha", "value": 100}, {"measurement": "Plant response rating: Mustard, Wild", "setting": "wild mustard; 125 g ai/ha", "value": 100}, {"measurement": "Plant response rating: Chickweed", "setting": "chickweed; 16 g ai/ha", "value": 70}, {"measurement": "Plant response rating: Chickweed", "setting": "chickweed; 31 g ai/ha", "value": 80}, {"measurement": "Plant response rating: Chickweed", "setting": "chickweed; 62 g ai/ha", "value": 100}, {"measurement": "Plant response rating: Chickweed", "setting": "chickweed; 125 g ai/ha", "value": 100}, {"measurement": "Plant response rating: Galium", "setting": "galium [2]; 16 g ai/ha", "value": 70}, {"measurement": "Plant response rating: Galium", "setting": "galium [2]; 31 g ai/ha", "value": 75}, {"measurement": "Plant response rating: Galium", "setting": "galium [2]; 62 g ai/ha", "value": 80}, {"measurement": "Plant response rating: Galium", "setting": "galium [2]; 125 g ai/ha", "value": 85}, {"measurement": "Plant response rating: Deadnettle", "setting": "deadnettle; 16 g ai/ha", "value": 70}, {"measurement": "Plant response rating: Deadnettle", "setting": "deadnettle; 31 g ai/ha", "value": 75}, {"measurement": "Plant response rating: Deadnettle", "setting": "deadnettle; 62 g ai/ha", "value": 90}, {"measurement": "Plant response rating: Deadnettle", "setting": "deadnettle; 125 g ai/ha", "value": 100}]}
